Assay [1] deals with P. aeruginosa. As to the kind of experiment: Drug-resistance profile towards antibiotics. Note: key: R = resistant; S = sensitive. The format is cell-based, Pseudomonas aeruginosa. Here is the method:
(§1) The resistance profiles of the microbial strains mentioned above, evaluated by the inventors and available in the literature, are reported in Tables 4 and 5 [24-26].
(§2) The activity on bacterial or fungal (yeast) strains isolated from biological samples from hospitalized or collection patients was evaluated, the nosocomial derivation of the majority of these strains characterized their resistance to different antimicrobials as reported in Tables 4 and 5.
(§3) In particular: • Klebsiella pneumoniae: represents the main opportunistic microorganism responsible for nosocomial infections and several authors report persistent biofilms of K. pneumoniae in water systems. A clinical isolate (NC5) was used to assess the actual resistance to the preparations. • Escherichia coli: the ATCC 7075 (American Type Culture Collection) strain was used. • Staphylococcus aureus Methicillin-resistantATCC BAA-811 is responsible for several suppurative infections in humans, it is often isolated in patients with prostheses. • Pseudomonas aeruginosa: in the present work a mucoid strain was tested (ATCC 15442) from the American Type Culture Collection (ATCC), known in the literature for its remarkable refractoriness to disinfectants, in particular if the strain is present in sessile form or in a state of mature biofilm. https://www.lgcstandards-atcc.org/products/all/15442.aspx?geo_country=it • Three azole-resistant clinical isolates belonging to the Candida genus were used, in particular: C. albicans clinical isolate BF1, C. krusei clinical isolate BF2 andclinical C. glabrata, isolate BF3 [1,26]. • In all the tests performed, each microbial species was cultivated according to standard growth conditions, in particular: • 1. Mueller-Hinton Agar medium (Microbiol, Uta, Cagliari), was used for the growth of E. coli, S. aureus, P. aeruginosa and K. pneumoniae. The development conditions were: in air at 37° C. • 2. Schaedler Agar and Broth (Microbiol) medium was used for the growth of S. pyogenes and S. mutans. Development conditions: in air and 5% CO2 at 37° C. • 3. Sabouraud Dextrose Agar and Broth (Microbiol), used for C. albicans, C. krusei and C. glabrata. Development conditions: in air at 37° C.

Assay [2] relates to E. coli. As to the kind of experiment: Drug-resistance profile towards antibiotics. Note: key: R = resistant; S = sensitive. In kind it is cell-based, Escherichia coli. The protocol:
as §1, §2, §3

The subject of assay [3] is K. pneumoniae. Put plainly: Drug-resistance profile towards antibiotics. Note: key: R = resistant; S = sensitive. In kind it is cell-based, Klebsiella pneumoniae. Here is the method:
as §1, §2, §3

Assay [4] deals with S. aureus MRSA. As to the kind of experiment: Drug-resistance profile towards antibiotics. Note: key: R = resistant; S = sensitive. In kind it is cell-based, Staphylococcus aureus. Here is the method: as §1, §2, §3
Assay [5] deals with S. pyogenes. Put plainly: Drug-resistance profile towards antibiotics. Note: key: R = resistant; S = sensitive. In kind it is cell-based, Streptococcus pyogenes. Here is the method:
as §1, §2, §3

Assay [6] relates to C. albicans. As to the kind of experiment: Drug-resistance profile of fungal strains. The format is cell-based, Candida albicans. Here is the method:
as §1, §2
as §3, with “Sabouraud Dextrose Agar and Broth (Microbiol), used for C. albicans, C. krusei and C. glabrata. Development conditions: in air at 37° C.” left out

Assay [7] concerns C. krusei. Put plainly: Drug-resistance profile of fungal strains. The format is cell-based, Candida krusei. The protocol:
as §1, §2
as §3, with “Sabouraud Dextrose Agar and Broth (Microbiol), used for C. albicans, C. krusei and C. glabrata. Development conditions: in air at 37° C.” left out

The test system of assay [8] is C. glabrata. As to the kind of experiment: Drug-resistance profile of fungal strains. The format is cell-based, Candida glabrata. The protocol:
as §1, §2
as §3, with “Sabouraud Dextrose Agar and Broth (Microbiol), used for C. albicans, C. krusei and C. glabrata. Development conditions: in air at 37° C.” left out

These results are taken from patent publication US12514254B2, “Rosa canina rosehip” (priority 2020, dated 2026).

As to `NCC[C@H](O)C(=O)N[C@@H]1C[C@H](N)[C@@H](O[C@H]2O[C@H](CN)[C@@H](O)[C@H](O)[C@H]2O)[C@H](O)[C@H]1O[C@H]1O[C@H](CO)[C@@H](O)[C@H](N)[C@H]1O` [Amikacin], the values for the Drug-resistance profile entry in assay [1], in assay [2] and in assay [3] were “S”, “R” and “R”, respectively.

For the molecule `CC1(C)S[C@@H]2[C@H](NC(=O)Cc3ccccc3)C(=O)N2[C@H]1C(=O)O` [Benzylpenicillin], the Drug-resistance profile entry in assay [4] is recorded as “R”.

As to `CO/N=C(\C(=O)N[C@@H]1C(=O)N2C(C(=O)[O-])=C(C[N+]3(C)CCCC3)CS[C@H]12)c1csc(N)n1` [Cefepime], the Drug-resistance profile entry in assay [1] and in assay [3] was “S” throughout.

For the molecule `CO/N=C(\C(=O)N[C@@H]1C(=O)N2C(C(=O)O)=C(COC(C)=O)CS[C@H]12)c1csc(N)n1` [Cefotaxime], in assay [2], the Drug-resistance profile result is “S”.

As to `CCO/N=C(\C(=O)N[C@@H]1C(=O)N2C(C(=O)[O-])=C(Sc3nc(-c4cc[n+](C)cc4)cs3)CS[C@H]12)c1nsc(N)n1` [Ceftaroline], in assay [4], the Drug-resistance profile entry is recorded as “S”.

As to `CC(C)(O/N=C(\C(=O)N[C@@H]1C(=O)N2C(C(=O)[O-])=C(C[n+]3ccccc3)CS[C@H]12)c1csc(N)n1)C(=O)O` [Ceftazidime], the Drug-resistance profile entry in assay [1], in assay [2] and in assay [3] was “S” throughout.

In the case of `O=C(O)c1cn(C2CC2)c2cc(N3CCNCC3)c(F)cc2c1=O` [Ciprofloxacin], the Drug-resistance profile result in assay [1] is listed as “R”; in assay [3] it was “S”.

`CCC[C@@H]1C[C@@H](C(=O)N[C@@H]([C@H]2O[C@H](SC)[C@H](O)[C@@H](O)[C@H]2O)[C@H](C)Cl)N(C)C1` [Clindamycin]: the Drug-resistance profile entry in assay [5] and in assay [4] was “S” each time.

Turning to `CCCCCCCCCC(=O)N[C@@H](Cc1c[nH]c2ccccc12)C(=O)N[C@H](CC(N)=O)C(=O)N[C@@H](CC(=O)O)C(=O)N[C@@H]1C(=O)NCC(=O)N[C@@H](CCCN)C(=O)N[C@@H](CC(=O)O)C(=O)N[C@H](C)C(=O)N[C@@H](CC(=O)O)C(=O)NCC(=O)N[C@H](CO)C(=O)N[C@@H]([C@H](C)CC(=O)O)C(=O)N[C@@H](CC(=O)c2ccccc2N)C(=O)O[C@@H]1C` [Daptomycin], the Drug-resistance profile entry in assay [4] is reported as “S”.

In the case of `C[C@@H](O)[C@H]1C(=O)N2C(C(=O)O)=C(S[C@@H]3CN[C@H](C(=O)Nc4cccc(C(=O)O)c4)C3)[C@H](C)[C@H]12` [Ertapenem], the results for the Drug-resistance profile result in assay [1], in assay [2] and in assay [3] were “R”, “S” and “R”, respectively.

With `CC[C@H]1OC(=O)[C@H](C)[C@@H](O[C@H]2C[C@@](C)(OC)[C@@H](O)[C@H](C)O2)[C@H](C)[C@@H](O[C@@H]2O[C@H](C)C[C@H](N(C)C)[C@H]2O)[C@](C)(O)C[C@@H](C)C(=O)[C@H](C)[C@@H](O)[C@]1(C)O` [Erythromycin], the results for the Drug-resistance profile entry in assay [5] and in assay [4] were “S” and “R”, respectively.

For `OC(Cn1cncn1)(Cn1cncn1)c1ccc(F)cc1F` [Fluconazole], the Drug-resistance profile entry in assay [6] (FLC reference values), in assay [7] (FLC reference values) and in assay [8] (FLC reference values) was “R (FLC: R > 64 μg/mL)” throughout.

Turning to `C[C@@H]1O[C@@H]1P(=O)(O)O` [Fosfomycin], the Drug-resistance profile result was “R” in assay [1] and “S” in assay [3].

On to `CC(=O)O[C@H]1C[C@@]2(C)[C@@H](C[C@@H](O)[C@H]3[C@@]4(C)CC[C@@H](O)[C@@H](C)[C@@H]4CC[C@@]32C)/C1=C(\CCC=C(C)C)C(=O)O` [Fusidic acid], for which the Drug-resistance profile result in assay [5] and in assay [4] was “S” in each case.

Take `C[C@@H](O)[C@H]1C(=O)N2C(C(=O)O)=C(SCCN=CN)C[C@H]12` [Imipenem]: the Drug-resistance profile result in assay [1] and in assay [3] was “S” throughout.

For the molecule `CC(=O)N1CCN(c2ccc(OCC3COC(Cn4ccnc4)(c4ccc(Cl)cc4Cl)O3)cc2)CC1` (stereo not shown) [Ketoconazole], the Drug-resistance profile result in assay [6] (KTC reference values), in assay [7] (KTC reference values) and in assay [8] (KTC reference values) was “R (KTC: R > 1 μg/mL)” each time.

On to `C[C@H]1COc2c(N3CCN(C)CC3)c(F)cc3c(=O)c(C(=O)O)cn1c23` [Levofloxacin], for which the Drug-resistance profile entry in assay [5] and in assay [4] was “S” throughout.

Consider `CC(=O)NC[C@H]1CN(c2ccc(N3CCOCC3)c(F)c2)C(=O)O1` [Linezolid], for which the Drug-resistance profile entry in assay [5] and in assay [4] was “S” throughout.

For `C[C@@H](O)[C@H]1C(=O)N2C(C(=O)O)=C(S[C@@H]3CN[C@H](C(=O)N(C)C)C3)[C@H](C)[C@H]12` [Meropenem], the Drug-resistance profile result in assay [1], in assay [2] and in assay [3] was “S” in each case.

`Cc1onc(-c2ccccc2)c1C(=O)N[C@@H]1C(=O)N2[C@@H]1SC(C)(C)[C@@H]2C(=O)O` [Oxacillin]: the Drug-resistance profile entry is “R” in assay [5] and “S” in assay [4].

For the molecule `CO[C@H]1/C=C/O[C@@]2(C)Oc3c(C)c(O)c4c(O)c(c(/C=N/N5CCN(C)CC5)c(O)c4c3C2=O)NC(=O)/C(C)=C\C=C\[C@H](C)[C@H](O)[C@@H](C)[C@@H](O)[C@@H](C)[C@H](OC(C)=O)[C@@H]1C` [Rifampicin], the Drug-resistance profile result in assay [5] and in assay [4] was “S” throughout.

Consider `CN(C)[C@@H]1C(O)=C(C(N)=O)C(=O)[C@@]2(O)C(O)=C3C(=O)c4c(O)cccc4[C@@](C)(O)[C@H]3C[C@@H]12` [Tetracycline], for which, in assay [4], the Drug-resistance profile result is reported as “S”.

For the molecule `CN(C)c1cc(NC(=O)CNC(C)(C)C)c(O)c2c1C[C@H]1C[C@H]3[C@H](N(C)C)C(O)=C(C(N)=O)C(=O)[C@@]3(O)C(O)=C1C2=O` [Tigecycline], the Drug-resistance profile result in assay [5] and in assay [4] was “S” throughout.

For the molecule `CN[C@H](CC(C)C)C(=O)N[C@H]1C(=O)N[C@@H](CC(N)=O)C(=O)N[C@H]2C(=O)N[C@H]3C(=O)N[C@H](C(=O)N[C@H](C(=O)O)c4cc(O)cc(O)c4-c4cc3ccc4O)[C@H](O)c3ccc(c(Cl)c3)Oc3cc2cc(c3O[C@@H]2O[C@H](CO)[C@@H](O)[C@H](O)[C@H]2O[C@H]2C[C@](C)(N)[C@H](O)[C@H](C)O2)Oc2ccc(cc2Cl)[C@H]1O` [Vancomycin], the Drug-resistance profile entry in assay [5] and in assay [4] was “S” in each case.

Turning to `C[C@@H](c1ncncc1F)[C@](O)(Cn1cncn1)c1ccc(F)cc1F` [Voriconazole], the Drug-resistance profile result in assay [6] (VRC reference values), in assay [7] (VRC reference values) and in assay [8] (VRC reference values) was “R (VRC: R > 4 μg/mL)” each time.

As for Amoxicillin/ac. Clavulanic, the Drug-resistance profile entry in assay [2] is “R”.

Consider Colistin, for which the Drug-resistance profile result in assay [1] and in assay [3] was “S” throughout.

With Gentamicin, the Drug-resistance profile result in assay [5], in assay [1], in assay [3] and in assay [4] was “S” throughout.

Regarding Piperacillin-tazobactam, the Drug-resistance profile entry in assay [1], in assay [2] and in assay [3] was “S” in each case.

As to Teicoplanin, in assay [4], the Drug-resistance profile result is listed as “S”.

For the molecule Trimethoprim-sulfamethoxazole, the Drug-resistance profile result is given as “R” in assay [5], “R” in assay [1], “R” in assay [3] and “S” in assay [4].
